Laboratory results from patent publication US5814600A, “Method and composition for treatment of insulin requiring mammals” (Amylin Pharmaceuticals Inc., priority 1994, dated 1998).
“Also recorded” adds a separate entry of the source. Like-named read-outs stand apart in the source and are kept apart here.

Experiments:
[1] = test system: streptozotocin-diabetic rats; assay: Liver glycogen in insulin-treated streptozotocin diabetic rats, daily s.c. amylin replacement; type: in vivo, rat
Protocol: There were 68 male Harlan Sprague Dawley rats (mass 301±3 g) in 8 treatment groups. Animals were housed at 22.7±0.8° C. in a 12:12 hour light:dark cycle (experiments being performed during the light cycle) and fed and watered ad libitum (Diet LM-485, Teklad, Madison, Wis.). The rats were sacrificed for harvesting of livers 4 to 5 hours into the light cycle.
Animals were injected with streptozotocin (Sigma Chemical Company, St Louis, Mo.: Sigma 50130) dissolved in water in a dose of 65 mg/kg into the lateral tail vein. […] Maintaining diabetic rats in this metabolic state optimizes survival. Following one week of established diabetes, animals received once daily s.c. injections of amylin vehicle (water for injection) for 5 days given at the time of the insulin injection.
These animals were treated identically to those in group 1 except that the daily subcutaneous injection contained 3 μg (n=5); 10 μg (n=12); 30 μg (n=5); 100 μg (n=5) or 300 μg (n=5) of rat amylin (Bachem lot# WG485^2/). The bioactivity of the peptide used in these experiments was first verified by bioassay, using inhibition of insulin-stimulated radioglucose incorporation into glycogen in the isolated stripped rat soleus muscle. […] The insulin dose in each of the groups of diabetic animals averaged 1.67 U/animal/day. There were no other observable differences in the required management of the different groups.
These animals were derived from the same stock and housed under the same conditions for the same time as those in groups 1-6, but were given no injections. 24 hours after the fifth daily injection of amylin or water (or an equivalent time after admission to the vivarium in the case of group 7 rats), the non-fasted rats were killed by decapitation and the livers immediately removed and frozen in liquid N2, weighed and stored for subsequent determination of glycogen concentration.
Whole livers were powdered while frozen. Approximately 200 mg of powder was further homogenized in 1.0 mL of 0.6M perchloric acid to denature enzymes. 200 μL of the homogenate was neutralized with 0.5 volumes of 1.0M KHCO3 in either of two acetate buffer solutions, one containing 2.0 mL of 200 mM acetate (pH4.8), the other containing the same but with 18.5 U/mL of amyloglucosidase (EC5 3.2.1.3, from Aspergillus nicer, Sigma A3423, Sigma Chemical Company, St Louis, Mo.) added. Following at least 20 minutes incubation at 23° C., the supernatants were assayed for glucose in an analyzer using D-glucose oxidase immobilized enzyme chemistry (Analyzer model 2300-STAT, YSI, Yellow Springs, Ohio). Purified rabbit liver glycogen (Sigma G8876) used as a standard indicated 98±4% recovery of dissolved glycogen and linearity within the range of observed liver glycogen concentrations (r=0.9994). All reagents were of analytical grade or better.
Statistical comparisons were by Student's t-test routines contained in the SYSTAT system (Systat, Evanston, Ill.). All results are reported as means ± standard error of the mean.

rat soleus muscle = type: cell-based
Protocol: Male Harlan Sprague Dawley rats of approximately 200 g mass were used in order to maintain soleus muscle mass less than 40 mg. The animals were fasted for 4 hours prior to sacrifice by decapitation. The skin was stripped from the lower limb which was then pinned out on cork board. The tendo achilles was cut just above os […]. gastrocnemius reflected out from the posterior aspect of the tibia. M. soleus, a small […], 0.55 mm thick flat muscle on the bone surface of m. gastrocnemius was then stripped clear and the perimysium cleaned off using fine scissors and forceps. M. soleus was then split into equal parts using a blade passed antero-posteriorly through the belly of the muscle to obtain a total of 4 muscle strips from each animal. After dissecting the muscle from the animal, it was kept for a short period in physiological saline. The muscle was not held under tension, as reported in other methodologies since in our hands this had no demonstrable effect on the insulin-sensitivity of radioglucose incorporation into glycogen. Muscles were added to 50 mL Erlenmeyer flasks containing 10 mL of a pregassed Krebs-Ringer bicarbonate buffer containing (mM) NaCl 118.5; KCl 5.94; CaCl2 2.54; MgSO4 1.19; KH2 PO4 1.19; NaHCO3 25; glucose 5.5; and recombinant human insulin (Humulin-R, Eli Lilly, Ind.) and either synthetic rat (Bachem, Torrance, Calif. Lot# ZG485) or synthetic human amylin (Bachem, Torrance, Calif. Lot# ZH144) as detailed below. Methods used to determine the nature and purity of rat and human amylin included quantitative amino acid analysis, gas phase amino acid sequencing, reverse phase HPLC and fast-atom-bombardment mass spectrometry. […] Incorporation of mercury into rat amylin may be a feature of many commercially available batches that have already been used in published studies. Since the peptide was bioactive, its action in muscle was expected to at least qualitatively mimic that of true rat amylin. The mercuric method of cyclization was not used in the synthesis of human amylin, which is found by electrospray ionization mass spectrometry and atomic absorption spectroscopy to be mercury-free. Muscles were assigned to different flasks so that the four muscle pieces from each animal were evenly distributed among the different assay conditions. The incubation media were gassed by gently blowing carbogen (95% O2, 5% CO2) over the surface while it was continuously agitated at 37° C. in an oscillating water bath. pH of gassed media at 37° C. was verified as being between 7.1 and 7.4. After a half-hour preincubation, 0.5 μCi of [U-^14 C]-glucose was added to each flask for a further 60 minutes. Each muscle piece was then rapidly removed, trimmed of tendons, blotted, frozen in liquid N2, weighed and then stored at […] for subsequent determination of ^14 C-glycogen. The incubation medium was also frozen for subsequent analysis. The concentration of human amylin present in the medium at the end of the incubation was determined by radioimmunoassay in surfactant-containing buffer. For both human and rat amylin, the actual mass added to the incubation medium was determined by quantitative amino-acid analysis. Each frozen muscle specimen was placed in a vial with 1 mL 60% potassium hydroxide (wt/vol) and digested at 70° C. for 45 minutes under intermittent vigorous agitation. Dissolved glycogen was precipitated onto the walls of the vial by addition of 3 mL absolute ethanol and overnight cooling at -20° C. After centrifugation for 30 minutes at 2000 x-- g, the supernatant was gently aspirated, the glycogen was again washed with ethanol and centrifuged, the ethanol aspirated and the precipitate dried under vacuum. It was important to evaporate all ethanol to avoid quenching during scintillation counting. The remaining glycogen was redissolved in 1 mL water and 4 mL scintillation fluid and counted for ^14 C. […]

liver glucose output = conditions: rats; Molina et al. 1990, Koopmans et al. 1990; cited from earlier work

EC50 (rat soleus muscle; 4 h): 6.2 nM
EC50 (rat soleus muscle; [insulin] 0 nM (nominal), nominal amylin concentrations, read-out: Amylin dose response: EC50, Mean ± log SE (converted)): 12.2 ± 0.94 nM
EC50 (rat soleus muscle; [insulin] 0.21 nM (nominal), nominal amylin concentrations, read-out: Amylin dose response: EC50, Mean ± log SE (converted)): 10.3 ± 0.48 nM
EC50 (rat soleus muscle; [insulin] 0.71 nM (nominal), nominal amylin concentrations, read-out: Amylin dose response: EC50, Mean ± log SE (converted)): 8.24 ± 0.24 nM
EC50 (rat soleus muscle; [insulin] 2.1 nM (nominal), nominal amylin concentrations, read-out: Amylin dose response: EC50, Mean ± log SE (converted)): 10.4 ± 0.16 nM
EC50 (rat soleus muscle; [insulin] 7.1 nM (nominal), nominal amylin concentrations, read-out: Amylin dose response: EC50, Mean ± log SE (converted)): 8.69 ± 0.13 nM
EC50 (rat soleus muscle; [insulin] 71 nM (nominal), nominal amylin concentrations, read-out: Amylin dose response: EC50, Mean ± log SE (converted)): 11.93 ± 0.11 nM
SMILES: CC(C)C[C@H](NC(=O)[C@H](CC(N)=O)NC(=O)[C@H](CC(N)=O)NC(=O)[C@H](CO)NC(=O)[C@H](CO)NC(=O)[C@H](CCCNC(=N)N)NC(=O)[C@@H](NC(=O)[C@H](CC(C)C)NC(=O)[C@H](Cc1ccccc1)NC(=O)[C@H](CC(N)=O)NC(=O)[C@H](C)NC(=O)[C@H](CC(C)C)NC(=O)[C@H](CCCNC(=N)N)NC(=O)[C@H](CCC(N)=O)NC(=O)[C@@H](NC(=O)[C@H](C)NC(=O)[C@@H]1CSSC[C@H](NC(=O)[C@@H](N)CCCCN)C(=O)N[C@@H](CC(N)=O)C(=O)N[C@@H]([C@@H](C)O)C(=O)N[C@@H](C)C(=O)N[C@@H]([C@@H](C)O)C(=O)N1)[C@@H](C)O)C(C)C)C(=O)NCC(=O)N1CCC[C@H]1C(=O)N[C@H](C(=O)N[C@@H](CC(C)C)C(=O)N1CCC[C@H]1C(=O)N1CCC[C@H]1C(=O)N[C@H](C(=O)N[C@@H](CC(N)=O)C(=O)N[C@H](C(=O)NCC(=O)N[C@@H](CO)C(=O)N[C@@H](CC(N)=O)C(=O)N[C@H](C(=O)N[C@@H](Cc1ccc(O)cc1)C(N)=O)[C@@H](C)O)C(C)C)[C@@H](C)O)C(C)C [rat amylin]
liver glycogen versus insulin alone ([1]; amylin 3 μg/day plus insulin): did not measurably increase glycogen levels
liver glycogen restoration towards normal ([1]; amylin 300 μg/day plus insulin): did not measurably restore liver glycogen towards normal
liver glycogen concentration versus normal animals ([1]; amylin 10, 30 and 100 μg per day plus insulin): not significantly different from that in normal animals
liver glycogen versus insulin-only therapy ([1]; amylin 10, 30 and 100 μg/day s.c. for 5 days plus insulin): Significant increases over insulin-only therapy; also recorded: dose-dependent increase in liver glycogen concentration above that in rats replaced with insulin alone
restoration of liver glycogen ([1]; five consecutive daily subcutaneous injections, insulin-treated STZ diabetic rats): dose-dependently restored liver glycogen to normal levels
Amylin dose response: Maximal response, Mean ± SEM (rat soleus muscle; [insulin] 0 nM (nominal)): 0.85 ± 0.17 μmol/g wet tissue/hr
Amylin dose response: Maximal response, Mean ± SEM (rat soleus muscle; [insulin] 0.21 nM (nominal)): 1.26 ± 0.18 μmol/g wet tissue/hr
Amylin dose response: Maximal response, Mean ± SEM (rat soleus muscle; [insulin] 0.71 nM (nominal)): 2.11 ± 0.18 μmol/g wet tissue/hr
Amylin dose response: Maximal response, Mean ± SEM (rat soleus muscle; [insulin] 2.1 nM (nominal)): 2.94 ± 0.18 μmol/g wet tissue/hr
Amylin dose response: Maximal response, Mean ± SEM (rat soleus muscle; [insulin] 7.1 nM (nominal)): 3.56 ± 0.19 μmol/g wet tissue/hr
Amylin dose response: Maximal response, Mean ± SEM (rat soleus muscle; [insulin] 71 nM (nominal)): 4.07 ± 0.18 μmol/g wet tissue/hr
mode of action on the insulin response in soleus muscle (rat soleus muscle; from insulin/amylin dose response matrix): noncompetitive, functional antagonist to insulin
effect on insulin-mediated suppression of liver glucose output (liver glucose output): reverses insulin-mediated suppression of liver glucose output
